Data as given in PubChem BioAssay AID1549 (Sanford-Burnham Center for Chemical Genomics, 2009).
Activity calls are given as the source filed them. How the calls were made is not given here.

These compounds were tested against Influenza A virus M2 proton channel (A/TW/4845/1999 H1N1) (assay: NMR binding screen, influenza A virus M2 proton channel, Kd (AID 1549)). Conditions: M2 protein.

| SMILES | Kd |
| --- | --- |
| CC(C)=CCC/C(C)=C/CC/C(C)=C/CC/C(C)=C/CC/C(C)=C/CC/C(C)=C/CC/C(C)=C/CC/C(C)=C/CC/C(C)=C/CO | > 4 mM (inactive) |
| O=c1c(-c2cccs2)[n+]([O-])c2ccccc2n1O | > 4 mM (inactive) |
| O=c1c(O)c(-c2ccccc2)oc2ccccc12 | > 4 mM (inactive) |
| COc1cc2c(cc1OC)[C@@H]1C(=O)c3ccc4oc(C(C)C)cc4c3O[C@@H]1CO2 | > 4 mM (inactive) |
| CC1(C)CC2(C)N(N)C(=O)CN2C(=S)N1 (centres undefined) | > 4 mM (inactive) |
| CC(O)c1ccc(C(C)O)cc1 (centres undefined) | > 4 mM (inactive) |
| C/C=C/COc1nc2c(c(=O)n(C)c(=O)n2C)n1C | > 4 mM (inactive) |
| CC(=O)Nc1ccc(S(=O)(=O)Nc2cc(C)on2)cc1 | > 4 mM (inactive) |
| O=C(Nc1ccc(N2CCCC2=O)cc1)c1cccc(F)c1 | > 4 mM (inactive) |
| Cc1ccc(C(=O)NC2=NCCS2)o1 | > 4 mM (inactive) |
| NCc1ccc(S(=O)(=O)O)cc1 | > 4 mM (inactive) |
| C/C=C(\C)c1nnc(NC(=O)C(C)C)s1 | > 4 mM (inactive) |
| Cn1cc(Cl)c(C(=O)Nc2ccncc2)n1 | > 4 mM (inactive) |
| O=C(Nc1nccs1)c1ccc(=O)[nH]n1 | > 4 mM (inactive) |
| O=C(Nc1ccccc1C(F)(F)F)N1CCCCCC1 | > 4 mM (inactive) |
| Cc1nc2ccccc2c(=O)[nH]1 | > 4 mM (inactive) |
| Cc1cc(C(=O)N2CCN(S(C)(=O)=O)CC2)cs1 | > 4 mM (inactive) |
| O=c1c(-c2ccccc2)coc2cc(O)cc(O)c12 | > 4 mM (inactive) |
| CC(O)C(=O)N/N=C/c1cccs1 (centres undefined) | > 4 mM (inactive) |
| CC(=O)Nc1ccc(N(C)C(C)=O)cc1 | > 4 mM (inactive) |
| O=C1C(=O)N(CN2CCN(CCO)CC2)c2ccccc21 | > 4 mM (inactive) |
| COc1ccc(CC(=O)c2ccc(O)cc2O)cc1 | > 4 mM (inactive) |
| Nc1ccc(Cc2ccc(N)cc2)cc1 | > 4 mM (inactive) |
| O=C(O)CN1CCNCC1 | > 4 mM (inactive) |
| O=c1cc(-c2ccccc2)oc2cc(O)cc(O)c12 | > 4 mM (inactive) |

| SMILES | Kd |
| --- | --- |
| CN1CCN(c2nc3c(c(=O)[nH]2)CCCC3)CC1 | > 4 mM (inactive) |
| S=C(NCc1ccco1)NN1CCOCC1 | > 4 mM (inactive) |
| Cc1ccccc1N1CCN(C(=O)C2CCCCC2)CC1 | > 4 mM (inactive) |
| O=C(c1ccc(F)cc1)C1CCNCC1 | > 4 mM (inactive) |
| NCCc1cnc[nH]1 | > 4 mM (inactive) |
| NC(=O)c1cccnc1Oc1ccccc1 | > 4 mM (inactive) |
| c1ccc2c(c1)nnn2C1CCNCC1 | > 4 mM (inactive) |
| CC(=O)CC1(O)C(=O)Nc2ccccc21 (centres undefined) | > 4 mM (inactive) |
| COc1ccccc1NC(=O)C1CCCCC1 | > 4 mM (inactive) |
| NC(CCC(=O)Nc1ccc([N+](=O)[O-])cc1)C(=O)O (centres undefined) | > 4 mM (inactive) |
| CN1CCN(c2ncnc3nc[nH]c23)CC1 | > 4 mM (inactive) |
| c1ccc(CN2CCC3(CC2)Nc2ccccc2CO3)cc1 | > 4 mM (inactive) |
| O=C(O)C1=C[C@@H](O)[C@@H](O)[C@H](O)C1 | > 4 mM (inactive) |
| O=C(O)CNc1ncnc2nc[nH]c12 | > 4 mM (inactive) |
| Cc1nc2sccn2c1C(=O)O | > 4 mM (inactive) |
| Cn1c(=O)c2[nH]c(Nc3ccccc3)nc2n(C)c1=O | > 4 mM (inactive) |
| Cc1nc(-c2cccc(C(=O)O)c2)cs1 | > 4 mM (inactive) |
| Cc1ncc(C[n+]2csc3ccccc32)c(N)n1 | > 4 mM (inactive) |
| CCn1c(-c2c[nH]c3ccccc23)n[nH]c1=S | > 4 mM (inactive) |
| NS(=O)(=O)c1ccc2c(c1)OCCO2 | > 4 mM (inactive) |
| CN1CC(=O)Nc2ccc([N+](=O)[O-])cc2C1=O | > 4 mM (inactive) |
| O=C(Nc1ccc2c(c1)OCO2)c1ccc(=O)[nH]n1 | > 4 mM (inactive) |
| O=C1C=CC2=C3c4cc(O)c(O)cc4C[C@@]3(O)COC2=C1 | > 4 mM (inactive) |
| Cc1cc(C(F)(F)F)nn1CC(N)=O | > 4 mM (inactive) |
